Like-named read-outs stand apart in the source and are kept apart here.
Key:
hSCN3A = target: T1, hSCN3A (Homo sapiens, UniProt Q9NY46); experiment: Whole-cell patch-clamp electrophysiology (conventional or PatchXpress), HEK cells expressing hSCN3A, estimated IC-50; format: cell-based; settings: read-out: SCN3A EIC-50
T1 construct: expressed in transfected cells
Procedure: Human Embryonic Kidney (HEK) cells were transfected with hSCN3A or hSCN9A constructs using lipofectamine reagent (Invitrogen), using standard techniques. Cells stably expressing the hSCN3A or hSCN9A constructs were identified by their resistance to G-418 (400 μg/ml). Clones were screened for expression using the whole-cell voltage-clamp technique. HEK cells stably transfected with hSCN3A or hSCN9A were maintained in DMEM medium supplemented with 10% heat-inactivated fetal bovine serum and 400 μg/ml G418 sulfate in an incubator at 37° C. with a humidified atmosphere of 10% CO2. For HTS, cells were harvested from flasks by trypsinization and replated in an appropriate multi-well plate (typically 96 or 384 wells/plate) such that confluence would be achieved within 24 hours of plating. For electrophysiological studies, cells were removed from the culture flask by brief trypsinization and replated at low density onto glass cover slips. Cells were typically used for electrophysiological experiments within 24 to 72 h after plating. Cover slips containing HEK cells expressing hSCN3A or hSCN9A were placed in a bath on the stage of an inverted microscope and perfused (approximately 1 ml/min) with extracellular solution of the following composition: 138 mM NaCl, 2 mM CaCl2, 5.4 mM KCl, 1 mM MgCl2, 10 mM glucose, and 10 mM HEPES, pH 7.4, with NaOH. […] All recordings were made at room temperature (22-24° C.) using AXOPATCH 200B amplifiers and PCLAMP software (Axon Instruments, Burlingame, Calif.) or PatchXpress 7000 hardware and associated software (Axon Instruments, Burlingame, Calif.). hSCN3A or hSCN9A currents in HEK cells were measured using the whole-cell configuration of the patch-clamp technique (Hamill et al., 1981). […] As a result, voltage errors were negligible and no correction was applied. Current records were acquired at 20 to 50 KHz and filtered at 5 to 10 KHz. HEK cells stably transfected with hSCN3A or hSCN9A were viewed under Hoffman contrast optics and placed in front of an array of flow pipes emitting either control or compound-containing extracellular solutions. All compounds were dissolved in dimethyl sulfoxide to make 10 mM stock solutions, which were then diluted into extracellular solution to attain the final concentrations desired. […] The voltage-dependence of inactivation was determined by applying a series of depolarizing prepulses (8 sec long in 10 mV increments) from a negative holding potential. The voltage was then immediately stepped to 0 mV to assess the magnitude of the sodium current. Currents elicited at 0 mV were plotted as a function of prepulse potential to allow estimation of the voltage midpoint of inactivation (V1/2). Cells were then voltage clamped at the empirically determined V1/2. Compounds were tested for their ability to inhibit hSCN3A or hSCN9A sodium channels by activating the channel with a 20 msec voltage step to 0 mV following an 8 second conditioning prepulse to the empirically determined V1-2 (Table B). Compound effect (% inhibition) was determined by difference in current amplitude before and after application of test compounds. […] In some cases electrophysiological assays were conducted with PatchXpress 7000 hardware and associated software (Molecular Devices Corp) (Table B). All assay buffers and solutions were identical to those used in conventional whole-cell voltage clamp experiments described above. hSCN3A or hSCN9A containing cells were grown as above to 50%-80% confluency and harvested by trypsinization. Trypsinized cells were washed and resuspended in extracellular buffer at a concentration of 1×10^6 cells/ml. The onboard liquid handling facility of the PatchXpress was used for dispensing cells and application of test compounds. Determination of the voltage midpoint of inactivation was as described for conventional whole-cell recordings. Cells were then voltage-clamped to the empirically determined V1/2 and current was activated by a 20 msec voltage step to 0 mV.

hSCN9A = target: T2, hSCN9A (Homo sapiens, UniProt Q15858); experiment: Whole-cell patch-clamp electrophysiology (conventional or PatchXpress), HEK cells expressing hSCN9A, estimated IC-50; format: cell-based; settings: read-out: SCN9A EIC-50
T2 construct: expressed in transfected cells
Outline: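 Current through each channel was evoked by a 20 ms step to 0 mV following an 8 s conditioning prepulse at the cell's own half-inactivation voltage. Recordings used HEK lines stably expressing the channel, conventional or PatchXpress patch clamp, room temperature, pH 7.4 bath; inhibition taken as pre/post-compound amplitude change.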

[1] = estimated IC-50, HEK cells expressing hSCN3A, class symbols or bounds
[2] = estimated IC-50, HEK cells expressing hSCN9A, class symbols or bounds
[3] = Table V, estimated IC-50 from single point electrophysiology, cells clamped at V1/2
[4] = commercial compounds (second Table VI), estimated IC-50 from single point electrophysiology

T2 sequence (Q15858 whole entry): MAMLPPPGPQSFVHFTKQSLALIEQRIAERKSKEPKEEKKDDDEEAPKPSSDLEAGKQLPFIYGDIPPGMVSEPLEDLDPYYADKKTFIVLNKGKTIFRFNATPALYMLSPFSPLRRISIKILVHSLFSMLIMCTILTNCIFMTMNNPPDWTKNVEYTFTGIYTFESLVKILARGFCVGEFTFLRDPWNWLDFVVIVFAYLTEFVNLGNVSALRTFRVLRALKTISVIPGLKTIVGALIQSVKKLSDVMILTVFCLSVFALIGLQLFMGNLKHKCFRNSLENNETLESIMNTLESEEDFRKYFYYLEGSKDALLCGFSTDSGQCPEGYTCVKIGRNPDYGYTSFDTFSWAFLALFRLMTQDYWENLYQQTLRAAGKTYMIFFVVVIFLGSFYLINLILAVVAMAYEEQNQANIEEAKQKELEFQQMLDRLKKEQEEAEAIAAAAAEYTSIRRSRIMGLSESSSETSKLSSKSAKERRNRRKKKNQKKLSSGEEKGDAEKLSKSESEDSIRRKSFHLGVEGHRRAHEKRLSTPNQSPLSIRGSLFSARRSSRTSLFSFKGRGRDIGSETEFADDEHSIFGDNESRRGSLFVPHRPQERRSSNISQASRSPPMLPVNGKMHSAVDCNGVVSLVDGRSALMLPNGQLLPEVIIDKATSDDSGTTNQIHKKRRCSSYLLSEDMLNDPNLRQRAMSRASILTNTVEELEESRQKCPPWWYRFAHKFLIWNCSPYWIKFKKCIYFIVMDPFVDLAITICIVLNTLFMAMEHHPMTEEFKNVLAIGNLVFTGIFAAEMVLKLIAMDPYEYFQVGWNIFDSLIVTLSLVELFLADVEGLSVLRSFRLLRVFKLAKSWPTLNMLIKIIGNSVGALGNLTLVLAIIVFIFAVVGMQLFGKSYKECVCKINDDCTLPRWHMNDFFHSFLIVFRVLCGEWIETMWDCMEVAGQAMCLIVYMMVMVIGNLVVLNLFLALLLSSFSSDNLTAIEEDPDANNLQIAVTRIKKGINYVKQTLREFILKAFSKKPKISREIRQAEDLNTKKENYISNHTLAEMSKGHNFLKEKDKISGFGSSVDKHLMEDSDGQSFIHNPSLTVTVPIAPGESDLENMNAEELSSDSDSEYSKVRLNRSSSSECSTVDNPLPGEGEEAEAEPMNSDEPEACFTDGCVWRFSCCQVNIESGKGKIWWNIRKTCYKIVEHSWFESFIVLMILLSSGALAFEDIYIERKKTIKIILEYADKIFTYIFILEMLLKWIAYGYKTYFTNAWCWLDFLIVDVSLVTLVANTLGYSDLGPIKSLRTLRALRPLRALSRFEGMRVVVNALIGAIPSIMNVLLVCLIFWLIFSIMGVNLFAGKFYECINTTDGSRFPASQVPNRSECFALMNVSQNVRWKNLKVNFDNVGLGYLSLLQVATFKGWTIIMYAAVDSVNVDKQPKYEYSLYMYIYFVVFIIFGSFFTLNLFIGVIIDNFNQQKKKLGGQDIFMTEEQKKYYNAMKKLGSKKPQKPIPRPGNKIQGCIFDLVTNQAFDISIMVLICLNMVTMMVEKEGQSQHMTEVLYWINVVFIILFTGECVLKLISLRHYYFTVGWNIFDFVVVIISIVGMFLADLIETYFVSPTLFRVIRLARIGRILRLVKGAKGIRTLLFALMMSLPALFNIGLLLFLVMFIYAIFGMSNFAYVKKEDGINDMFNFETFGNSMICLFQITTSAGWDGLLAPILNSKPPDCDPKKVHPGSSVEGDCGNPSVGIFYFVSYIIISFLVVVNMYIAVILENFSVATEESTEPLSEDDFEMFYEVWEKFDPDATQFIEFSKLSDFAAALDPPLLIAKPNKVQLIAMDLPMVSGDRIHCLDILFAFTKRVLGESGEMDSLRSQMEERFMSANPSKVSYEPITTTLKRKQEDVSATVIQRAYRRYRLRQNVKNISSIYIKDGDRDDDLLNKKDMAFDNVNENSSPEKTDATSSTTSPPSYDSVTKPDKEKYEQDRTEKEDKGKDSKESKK
T1 sequence (Q9NY46 whole entry): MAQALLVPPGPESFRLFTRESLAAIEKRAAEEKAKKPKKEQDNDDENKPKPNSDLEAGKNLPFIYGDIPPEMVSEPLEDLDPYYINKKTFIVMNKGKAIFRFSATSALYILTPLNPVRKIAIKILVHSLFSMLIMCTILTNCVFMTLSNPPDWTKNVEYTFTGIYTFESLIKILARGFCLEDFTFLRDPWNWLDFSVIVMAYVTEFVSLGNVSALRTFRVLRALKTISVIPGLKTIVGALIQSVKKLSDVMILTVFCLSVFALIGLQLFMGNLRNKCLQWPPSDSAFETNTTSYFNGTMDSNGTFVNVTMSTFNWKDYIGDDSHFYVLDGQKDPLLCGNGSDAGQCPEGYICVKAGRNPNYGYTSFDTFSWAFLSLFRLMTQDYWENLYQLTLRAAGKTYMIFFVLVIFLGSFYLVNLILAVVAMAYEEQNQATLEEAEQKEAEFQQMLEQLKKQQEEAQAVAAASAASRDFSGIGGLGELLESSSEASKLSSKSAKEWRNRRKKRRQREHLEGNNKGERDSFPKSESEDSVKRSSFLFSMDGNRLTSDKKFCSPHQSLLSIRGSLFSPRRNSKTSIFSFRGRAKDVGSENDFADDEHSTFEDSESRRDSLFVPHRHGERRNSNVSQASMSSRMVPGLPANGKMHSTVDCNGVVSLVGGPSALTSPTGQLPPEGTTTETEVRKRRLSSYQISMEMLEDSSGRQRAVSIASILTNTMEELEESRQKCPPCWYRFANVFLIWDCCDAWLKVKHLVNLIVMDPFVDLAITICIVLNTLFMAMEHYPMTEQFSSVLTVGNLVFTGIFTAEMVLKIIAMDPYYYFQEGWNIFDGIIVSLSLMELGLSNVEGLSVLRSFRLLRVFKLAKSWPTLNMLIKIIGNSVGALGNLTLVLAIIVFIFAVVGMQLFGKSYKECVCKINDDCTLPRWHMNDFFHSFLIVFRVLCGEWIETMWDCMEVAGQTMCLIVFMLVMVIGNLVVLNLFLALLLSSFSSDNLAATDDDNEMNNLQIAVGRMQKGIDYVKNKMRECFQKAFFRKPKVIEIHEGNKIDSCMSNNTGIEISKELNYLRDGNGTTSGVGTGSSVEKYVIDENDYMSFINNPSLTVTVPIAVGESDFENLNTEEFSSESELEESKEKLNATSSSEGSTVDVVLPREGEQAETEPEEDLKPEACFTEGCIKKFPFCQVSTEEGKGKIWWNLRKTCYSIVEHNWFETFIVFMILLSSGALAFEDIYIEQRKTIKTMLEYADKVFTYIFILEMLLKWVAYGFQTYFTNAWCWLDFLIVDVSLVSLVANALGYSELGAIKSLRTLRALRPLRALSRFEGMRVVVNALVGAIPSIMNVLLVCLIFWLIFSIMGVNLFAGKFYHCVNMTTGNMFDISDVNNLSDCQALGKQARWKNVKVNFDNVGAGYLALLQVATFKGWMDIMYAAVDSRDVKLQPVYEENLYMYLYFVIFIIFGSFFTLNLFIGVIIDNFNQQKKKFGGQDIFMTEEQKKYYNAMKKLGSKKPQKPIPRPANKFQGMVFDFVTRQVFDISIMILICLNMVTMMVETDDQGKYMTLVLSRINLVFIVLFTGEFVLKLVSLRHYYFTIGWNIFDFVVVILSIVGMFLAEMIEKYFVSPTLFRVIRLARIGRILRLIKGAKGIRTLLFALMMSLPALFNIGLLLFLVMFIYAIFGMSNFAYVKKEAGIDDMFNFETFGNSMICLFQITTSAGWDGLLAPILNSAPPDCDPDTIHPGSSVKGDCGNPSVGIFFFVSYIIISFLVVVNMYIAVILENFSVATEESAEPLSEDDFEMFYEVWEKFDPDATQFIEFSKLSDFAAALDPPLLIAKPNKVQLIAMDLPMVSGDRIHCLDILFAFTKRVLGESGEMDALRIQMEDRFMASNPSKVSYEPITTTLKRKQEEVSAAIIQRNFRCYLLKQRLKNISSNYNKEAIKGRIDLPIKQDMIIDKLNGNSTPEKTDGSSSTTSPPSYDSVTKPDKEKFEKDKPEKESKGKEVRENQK

IC50 (hSCN3A; [1]) | IC50 (hSCN9A; [2]) | Structure (SMILES) | also measured
< 2000 nM | 2000 to 10000 nM | Cn1c(Nc2ccc(S(=O)(=O)Nc3nccs3)cc2)nc2cc(Cl)ccc21 [Compound 100, 4-(5-chloro-1-methyl-1H-benzo[d]imidazol-2-ylamino)-N-(thiazol-2-yl)benzenesulfonamide] | 
< 2000 nM | > 1000 nM | O=S(=O)(Nc1nccs1)c1ccc(Nc2nccc(OCc3ccc(C(F)(F)F)cc3)n2)cc1 [Compound 55, N-(thiazol-2-yl)-4-(4-(4-(trifluoromethyl)benzyloxy)pyrimidin-2-ylamino)benzenesulfonamide] | 
2000 to 10000 nM | > 1000 nM | O=S(=O)(Nc1nccs1)c1ccc(Nc2nc(C[S+]([O-])c3ccc(F)cc3)cs2)cc1 (centres unmarked) [Compound 89, 4-(4-((4-fluorophenylsulfinyl)methyl)thiazol-2-ylamino)-N-(thiazol-2-yl)benzenesulfonamide] | 
< 2000 nM | < 2000 nM | O=S(=O)(Nc1nccs1)c1ccc(Nc2nc(CNCc3ccc(Cl)cc3)cs2)cc1 [Compound 65, 4-(4-((4-chlorobenzylamino)methyl)thiazol-2-ylamino)-N-(thiazol-2-yl)benzenesulfonamide] | 
< 2000 nM | < 2000 nM | O=S(=O)(Nc1nccs1)c1ccc(Nc2nc(Cc3ccc(F)cc3F)cs2)cc1 [Compound 79, 4-(4-(2,4-difluorobenzyl)thiazol-2-ylamino)-N-(thiazol-2-yl)benzenesulfonamide] | 
< 2000 nM | > 1000 nM | CN(CCc1ccncc1)Cc1csc(Nc2ccc(S(=O)(=O)Nc3nccs3)cc2)n1 [Compound 75, 4-(4-((methyl(2-(pyridin-4-yl)ethyl)amino)methyl)thiazol-2-ylamino)-N-(thiazol-2-yl)benzenesulfonamide] | 
> 1000 nM | > 1000 nM | NC(=O)c1cnn(-c2ccc(F)c(Cl)c2)c1Nc1ccc(S(=O)(=O)Nc2nccs2)cc1 [Compound 112, 1-(3-chloro-4-fluorophenyl)-5-(4-(N-thiazol-2-ylsulfamoyl)phenylamino)-1H-pyrazole-4-carboxamide] | 
 |  | O=S(=O)(Nc1nccs1)c1ccc(Nc2ccn(Cc3ccc(Cl)cc3)n2)cc1F [Compound 31, 4-(1-(4-chlorobenzyl)-1H-pyrazol-3-ylamino)-2-fluoro-N-(thiazol-2-yl)benzenesulfonamide] | IC50 (hSCN3A; [3]): < 2000 nM; IC50 (hSCN9A; [3]): < 2000 nM
> 1000 nM | > 3000 nM | O=S(=O)(Nc1nccs1)c1ccc(Nc2ncccn2)cc1 [Compound 44, 4-(pyrimidin-2-ylamino)-N-(thiazol-2-yl)benzenesulfonamide] | 
< 2000 nM | < 2000 nM | Cc1cc(Cl)ccc1OCc1csc(Nc2ccc(S(=O)(=O)Nc3nccs3)cc2)n1 [Compound 96, 4-(4-((4-chloro-2-methylphenoxy)methyl)thiazol-2-ylamino)-N-(thiazol-2-yl)benzenesulfonamide] | 
< 2000 nM | < 2000 nM | Cn1nc(CC2CCCCC2)cc1Nc1ccc(S(=O)(=O)Nc2nccs2)c(F)c1 [Compound 133, 4-(3-(cyclohexylmethyl)-1-methyl-1H-pyrazol-5-ylamino)-2-fluoro-N-(thiazol-2-yl)benzenesulfonamide] | 
< 2000 nM | 2000 to 10000 nM | O=S(=O)(Nc1nccs1)c1ccc(Nc2nc(CNC(c3ccccc3)c3ccccc3)cs2)cc1 [Compound 60, 4-(4-((benzhydrylamino)methyl)thiazol-2-ylamino)-N-(thiazol-2-yl)benzenesulfonamide] | 
< 2000 nM | > 3000 nM | O=S(=O)(Nc1nccs1)c1ccc(Nc2nc(-c3ccccc3)c(-c3ccccc3)s2)cc1 [Compound 47, 4-(4,5-diphenylthiazol-2-ylamino)-N-(thiazol-2-yl)benzenesulfonamide] | 
< 2000 nM | 2000 to 10000 nM | O=S(=O)(Nc1nccs1)c1ccc(Nc2ccn(Cc3ccc(Cl)cc3)n2)nc1 [Compound 227, 6-(1-(4-chlorobenzyl)-1H-pyrazol-3-ylamino)-N-(thiazol-2-yl)pyridine-3-sulfonamide] | 
 |  | O=S(=O)(Nc1nccs1)c1ccc(Nc2ccccc2-c2ccccc2)cc1F [Compound 37, 4-(Biphenyl-2-ylamino)-2-fluoro-N-thiazol-2-yl-benzenesulfonamide] | IC50 (hSCN3A; [3]): < 2000 nM; IC50 (hSCN9A; [3]): < 2000 nM
2000 to 10000 nM | > 1000 nM | O=S(=O)(Nc1nccs1)c1ccc(Nc2nccc(OCc3ccccc3F)n2)cc1 [Compound 54, 4-(4-(2-fluorobenzyloxy)pyrimidin-2-ylamino)-N-(thiazol-2-yl)benzenesulfonamide] | 
 |  | CC(C)(C)c1csc(Nc2ccc(S(=O)(=O)Nc3nccs3)cc2)n1 [Compound 14, 4-(4-Tert-butyl-thiazol-2-ylamino)-N-thiazol-2-yl-benzenesulfonamide] | IC50 (hSCN3A; [3]): < 2000 nM; IC50 (hSCN9A; [3]): 2000 to 10000 nM
 |  | O=S(=O)(Nc1nccs1)c1ccc(Nc2cc(Cc3ccc(Cl)cc3)n[nH]2)cc1 [Compound 16, 4-(3-(4-Chlorobenzyl)-1H-pyrazol-5-ylamino)-N-(thiazol-2-yl)benzenesulfonamide] | IC50 (hSCN3A; [3]): < 2000 nM; IC50 (hSCN9A; [3]): < 2000 nM
2000 to 10000 nM | > 1000 nM | Cc1csc(Nc2ccc(S(=O)(=O)Nc3nccs3)cc2)n1 [Compound 78, 4-(4-methylthiazol-2-ylamino)-N-(thiazol-2-yl)benzenesulfonamide] | 
< 2000 nM | < 2000 nM | Cc1cc(Nc2ccc(S(=O)(=O)Nc3nccs3)c(F)c2)n(-c2ccccc2F)n1 [Compound 173, 2-fluoro-4-(1-(2-fluorophenyl)-3-methyl-1H-pyrazol-5-ylamino)-N-(thiazol-2-yl)benzenesulfonamide] | 
2000 to 10000 nM | > 1000 nM | O=S(=O)(Nc1nccs1)c1ccc(Nc2ccn(Cc3ccc(Cl)cc3)n2)cc1OC(F)(F)F [Compound 266, 4-(1-(4-chlorobenzyl)-1H-pyrazol-3-ylamino)-N-(thiazol-2-yl)-2-(trifluoromethoxy)benzenesulfonamide] | 
 |  | CCOC(=O)C1(C)C=C(Nc2ccc(S(=O)(=O)Nc3nccs3)cc2)C(=O)N1c1ccccc1 (centres unmarked) [Compound 38, ethyl 2-methyl-5-oxo-1-phenyl-4-(4-(N-thiazol-2-ylsulfamoyl)phenylamino)-2,5-dihydro-1H-pyrrole-2-carboxylate, reference compound] | IC50 (hSCN3A; [4]): > 1000 nM; IC50 (hSCN9A; [4]): > 3000 nM
< 2000 nM | 2000 to 10000 nM | CC(C)(C)c1ccc(OCc2csc(Nc3ccc(S(=O)(=O)Nc4nccs4)cc3)n2)cc1 [Compound 62, 4-(4-((4-tert-butylphenoxy)methyl)thiazol-2-ylamino)-N-(thiazol-2-yl)benzenesulfonamide] | 
 |  | Cc1nc(Nc2ccc(S(=O)(=O)Nc3nccs3)cc2)sc1C(C)(C)C [Compound 8, 4-(5-Tert-butyl-4-methylthiazol-2-ylamino)-N-(thiazol-2-yl)benzenesulfonamide] | IC50 (hSCN3A; [3]): < 2000 nM; IC50 (hSCN9A; [3]): < 2000 nM
 |  | CC(C)(C)c1csc(Nc2ccc(S(=O)(=O)Nc3nccs3)c(Cl)c2)n1 [Compound 10, 4-(4-Tert-butyl-thiazol-2-ylamino)-2-chloro-N-thiazol-2-yl-benzenesulfonamide] | IC50 (hSCN3A; [3]): < 2000 nM; IC50 (hSCN9A; [3]): 2000 to 10000 nM

Reference: patent US8124610B2, “Sodium channel inhibitors” (Icagen Inc., priority 2007, dated 2012)
